The record followed here is patent US5587374A, “10(1-hydroxyethyl)-11-oxo-1-azatricyclo/7.2.0.0.^3.8/ undec-2-ene-2-carboxylic acid esters and a process for preparing thereof” (Glaxo SpA, priority 1990, dated 1996).

Data set [1] deals with E. Coli. Nature of the data set: protection tests using mice, orally administered compounds (E. Coli). It is filed as in vivo, mice infected with E. Coli. To be noted: Escherichia coli, oral, protection test.
Data set [2] deals with Staph. aureus. Nature of the data set: protection tests using mice, orally administered compounds (Staph. aureus). The settings on record: Staphylococcus aureus, in Mus musculus, po, read-out: ED50 Staph. aureus.
Data set [3] in a line: oral administration to mice, adverse effects. It counts as in vivo. The settings on record: orally administered, doses up to 1000 mg/kg. The text has this:
The compounds of the invention are also essentially non-toxic at therapeutically useful dose levels.

In general, ED50 refers to the dose that gives a 50% effect, or the effect in half of the subjects.

Molecules are shown by their SMILES.

Turning to `CO/N=C(\C(=O)N[C@@H]1C(=O)N2C(C(=O)OC(C)OC(C)=O)=C(COC(N)=O)CS[C@H]12)c1ccco1` (stereo partly drawn) [Cefuroxime axetil, cefuroxime axetil, reference compound], the values for the ED50 in data set [1] and in data set [2] were 26 mg/kg and 6 mg/kg, respectively.
For `CO[C@H]1CCC[C@H]2C1=C(C(=O)OC(C)OC(=O)OC1CCCCC1)N1C(=O)[C@H]([C@@H](C)O)[C@@H]21` (stereo partly drawn) [Example 1, 1-(Cyclohexyloxycarbonyloxy)ethyl (4S,8S,9R,10S,12R)-4-methoxy-10-(1'-hydroxyethyl)-11-oxo-1-azatricyclo-[7.2.0.0^3,8]undec-2-ene-2-carboxylate], the ED50 in data set [1] and in data set [2] was below 1 mg/kg each time. The adverse effects entry in data set [3] is “no adverse effects were observed”.
Turning to `CO[C@H]1CCC[C@H]2C1=C(C(=O)OC(C)OC(=O)OC(C)C)N1C(=O)[C@H]([C@@H](C)O)[C@@H]21` (stereo partly drawn) [Example 3, 1-(Isopropyloxycarbonyloxy)ethyl (4S,8S,9R,10S,12R)-4-methoxy-10-(1'-hydroxyethyl)-11-oxo-1-azatricyclo-[7.2.0.0^3,8]undec-2-ene-2-carboxylate], the 50% effective dose (ED50) in data set [1] and in data set [2] was below 1 mg/kg in each case.
Regarding `CO[C@H]1CCC[C@H]2C1=C(C(=O)OCOC(=O)C(C)(C)C)N1C(=O)[C@H]([C@@H](C)O)[C@@H]21` [Example 10, [(1,1-Dimethyl-ethyl)carbonyloxy]methyl (4S,8S, 9R, 10S, 12R) -4-methoxy-10-(1'-hydroxyethyl)-11-oxo-1-azatricyclo[7.2.0.0^3,8]undec-2-ene-2-carboxylate], the ED50 in data set [1] and in data set [2] was below 1 mg/kg each time.
